# Measurements taken from ChEMBL document CHEMBL6121069, “A Medicinal Chemistry Perspective on Protein Tyrosine Phosphatase Nonreceptor Type 2 in Tumor Immunology” (J Med Chem, 2025).
# Columns and labels:
# [1] = target: T1, Tyrosine-protein phosphatase non-receptor type 2 (Homo sapiens, UniProt P17706)
# T1 sequence (P17706 whole entry): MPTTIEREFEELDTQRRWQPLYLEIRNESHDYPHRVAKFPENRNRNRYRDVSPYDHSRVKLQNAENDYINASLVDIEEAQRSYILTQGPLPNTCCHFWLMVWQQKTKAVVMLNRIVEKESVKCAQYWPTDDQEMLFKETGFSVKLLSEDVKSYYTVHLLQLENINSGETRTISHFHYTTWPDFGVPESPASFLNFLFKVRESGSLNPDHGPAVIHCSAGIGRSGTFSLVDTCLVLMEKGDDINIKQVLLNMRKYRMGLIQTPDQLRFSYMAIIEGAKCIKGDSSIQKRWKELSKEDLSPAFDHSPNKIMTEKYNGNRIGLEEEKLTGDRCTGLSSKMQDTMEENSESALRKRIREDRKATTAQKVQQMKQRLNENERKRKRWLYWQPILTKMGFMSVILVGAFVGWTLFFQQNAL
# Description: Binding affinity to PTPN2 (unknown origin) assessed as inhibition constant
# [2] = target: T2, Tyrosine-protein phosphatase non-receptor type 1 (Homo sapiens, UniProt P18031)
# T2 sequence (P18031 whole entry): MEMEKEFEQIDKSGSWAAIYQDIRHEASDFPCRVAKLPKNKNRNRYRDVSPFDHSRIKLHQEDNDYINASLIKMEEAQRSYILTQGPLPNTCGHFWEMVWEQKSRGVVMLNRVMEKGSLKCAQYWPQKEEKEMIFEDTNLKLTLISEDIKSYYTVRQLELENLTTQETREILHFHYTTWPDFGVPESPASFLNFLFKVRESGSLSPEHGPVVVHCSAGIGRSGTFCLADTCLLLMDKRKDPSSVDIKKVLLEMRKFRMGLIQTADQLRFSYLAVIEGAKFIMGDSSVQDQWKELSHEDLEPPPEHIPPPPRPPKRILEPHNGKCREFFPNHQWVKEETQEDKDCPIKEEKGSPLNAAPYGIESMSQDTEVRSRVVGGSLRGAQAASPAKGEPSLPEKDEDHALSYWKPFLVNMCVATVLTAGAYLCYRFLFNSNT
# Description: Binding affinity to PTP1B (unknown origin) assessed as inhibition constant
# [3] = target: T1, Tyrosine-protein phosphatase non-receptor type 2; remark: listed apart in the source
# Description: (§1) Inhibition of wild type FLAG-tagged PTPN2 (unknown origin) extracted from Escherichia coli BL21 (DE3) by micro-plate reader assay
# [4] = target: T1, Tyrosine-protein phosphatase non-receptor type 2; remark: listed apart in the source
# Description: as §1
# [5] = target: Protein cereblon/Tyrosine-protein phosphatase non-receptor type 1 (Homo sapiens, UniProt P18031+Q96SW2); settings: hek293t
# Sequence of Protein cereblon/Tyrosine-protein phosphatase non-receptor type 1 (Q96SW2 whole entry, one chain of several): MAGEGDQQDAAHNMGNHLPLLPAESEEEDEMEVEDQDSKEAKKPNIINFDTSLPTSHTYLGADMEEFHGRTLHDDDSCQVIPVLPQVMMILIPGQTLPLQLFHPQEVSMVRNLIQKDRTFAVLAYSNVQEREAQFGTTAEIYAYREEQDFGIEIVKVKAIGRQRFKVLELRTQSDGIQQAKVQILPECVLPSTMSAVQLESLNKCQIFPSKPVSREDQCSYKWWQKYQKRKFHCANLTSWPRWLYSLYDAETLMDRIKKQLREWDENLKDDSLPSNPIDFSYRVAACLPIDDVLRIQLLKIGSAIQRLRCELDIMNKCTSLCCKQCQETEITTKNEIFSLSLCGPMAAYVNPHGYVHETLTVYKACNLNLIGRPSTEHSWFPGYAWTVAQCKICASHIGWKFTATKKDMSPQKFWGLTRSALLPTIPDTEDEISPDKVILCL
# Description: PROTAC activity at PTP1B/CRBN in HEK293T cells assessed as maximal protein degradation at 10 uM measured for 48 hrs by Western blot analysis relative to control
# [6] = target: T3, Protein cereblon/Tyrosine-protein phosphatase non-receptor type 2 (Homo sapiens, UniProt P17706+Q96SW2); settings: hek293t
# T3 sequence (Q96SW2 whole entry, one chain of several): as above
# Description: PROTAC activity at PTPN2/CRBN in HEK293T cells assessed as protein degradation measured for 48 hrs by Western blot analysis
# [7] = target: T1, Tyrosine-protein phosphatase non-receptor type 2; remark: listed apart in the source
# Description: Inhibition of His-tagged PTPN2 (unknown origin) by mobility shift assay
# B16-F10 [8] = test: cells; settings: Mus musculus
# Description: Antiproliferative activity against mouse B16-F10 cells assessed as reduction in cell growth
# B16-F10 [9] = test: cells; settings: Mus musculus; remark: listed apart in the source
# Description: Antiproliferative activity against mouse B16-F10 cells
# [10] = target: T1, Tyrosine-protein phosphatase non-receptor type 2; remark: listed apart in the source
# Description: Inhibition of full length human recombinant PTPN2 using DiFMUP as substrate
# [11] = target: T2, Tyrosine-protein phosphatase non-receptor type 1; remark: listed apart in the source
# Description: Inhibition of PTP1B (unknown origin)
# [12] = target: T3, Protein cereblon/Tyrosine-protein phosphatase non-receptor type 2; settings: hek293t; remark: listed apart in the source
# Description: PROTAC activity at PTPN2/CRBN in HEK293T cells assessed as induction of PTPN2 degradation incubated for 24 hrs by Nan-glo HiBiT lytic assay
# B16-F10 [13] = test: animal or person; settings: Mus musculus, B16-F10, 360 h, read-out: TGI
# [14] = target: T1, Tyrosine-protein phosphatase non-receptor type 2; remark: listed apart in the source
# Description: Inhibition of PTPN2 (unknown origin) using DiFMUP as substrate incubated for 30 mins by fluorescence based analysis
# [15] = target: T2, Tyrosine-protein phosphatase non-receptor type 1; remark: listed apart in the source
# Description: Binding affinity to PTP1B (unknown origin) using pNPP as substrate incubated for 60 mins by fluorescence based analysis
# [16] = target: T1, Tyrosine-protein phosphatase non-receptor type 2; remark: listed apart in the source
# Description: Inhibition of PTPN2 (unknown origin) using DiFMUP as substrate pre-incubated for 15 mins and measured for 30 mins by fluorescence based analysis
# [17] = target: T1, Tyrosine-protein phosphatase non-receptor type 2; remark: listed apart in the source
# Description: Inhibition of PTPN2 (unknown origin) using pNPP as substrate measured for 60 mins by fluorescence based analysis
# B16-F10 [18] = test: cells; settings: Mus musculus; remark: listed apart in the source
# Description: Antiproliferative activity against mouse B16-F10 cells assessed as inhibition of cell growth
# [19] = target: T1, Tyrosine-protein phosphatase non-receptor type 2; remark: listed apart in the source
# Description: Inhibition of full length human recombinant PTPN2 (1 to 387 residues)
# [20] = target: T2, Tyrosine-protein phosphatase non-receptor type 1; remark: listed apart in the source
# Description: Inhibition of C-terminal recombinant PTP1B (1 to 405 residues) (unknown origin) using pNPP as substrate incubated for 30 mins by fluorescence based analysis
# [21] = target: T1, Tyrosine-protein phosphatase non-receptor type 2; remark: listed apart in the source
# Description: Inhibition of human PTPN2 using DiFMUP as substrate by fluorescence based analysis
# [22] = target: T2, Tyrosine-protein phosphatase non-receptor type 1; remark: listed apart in the source
# Description: Inhibition of PTP1B (unknown origin) using para-nitrophenol phosphate substrate incubated for 30 mins by fluorescence based analysis
# [23] = target: T2, Tyrosine-protein phosphatase non-receptor type 1; remark: listed apart in the source
# Description: Inhibition of full length His-tagged PTP1B (unknown origin) by mobility shift assay
# [24] = target: T1, Tyrosine-protein phosphatase non-receptor type 2; remark: listed apart in the source
# Description: Inhibition of PTPN2 (unknown origin) by mobility shift assay
# [25] = target: T2, Tyrosine-protein phosphatase non-receptor type 1; remark: listed apart in the source
# Description: Inhibition of PTP1B (unknown origin) by mobility shift assay
# [26] = target: T1, Tyrosine-protein phosphatase non-receptor type 2; remark: listed apart in the source
# Description: Binding affinity to PTPN2 (unknown origin) assessed as dissociation constant by SPR assay
# cells = settings: Homo sapiens, B16
# Description: Inhibition of PTPN2/PTPN1 (unknown origin) in mouse B16 cells assessed as inhibition of IFNgamma-mediated STAT1 phosphorylation
smiles,measurement,setting,value
O=C(O)COc1c(C(=O)O)sc(-c2cccc(N(C(=O)c3ccccc3)C3CCCCC3)c2)c1Br,Ki,[1],0.032 µM
same,Ki,[2],0.016 µM
O=C1/C(=N\Nc2ccc(S(=O)(=O)O)cc2)C(c2ccc([N+](=O)[O-])cc2)=NN1c1ccccc1,IC50,[3],3.79 µM
CC(C)(C)C(=O)Nc1ccc2c(c1)C(=O)C(=O)c1ccccc1-2,IC50,[4],0.95 µM
Cc1ncsc1-c1ccc([C@H](C)NC(=O)[C@@H]2C[C@@H](O)CN2C(=O)[C@@H](NC(=O)CCCCCCNC(=O)Cn2cc(-c3ccc4cc(O)c(N5CC(=O)NS5(=O)=O)c(F)c4c3)cn2)C(C)(C)C)cc1,DC50,[5],0.142 µM
same,DC50,[6],0.094 µM
Cc1ncsc1-c1ccc([C@H](C)NC(=O)[C@@H]2C[C@@H](O)CN2C(=O)[C@@H](NC(=O)CCCCCCCCCCNC(=O)Cn2cc(-c3ccc4cc(O)c(N5CC(=O)NS5(=O)=O)c(F)c4c3)cn2)C(C)(C)C)cc1,DC50,[5],2 µM
same,DC50,[6],0.571 µM
Cc1ncsc1-c1ccc([C@H](C)NC(=O)[C@@H]2C[C@@H](O)CN2C(=O)[C@@H](NC(=O)CCCCCNC(=O)Cn2cc(-c3ccc4cc(O)c(N5CC(=O)NS5(=O)=O)c(F)c4c3)cn2)C(C)(C)C)cc1,DC50,[5],13.1 µM
same,DC50,[6],0.217 µM
Cc1ncsc1-c1ccc([C@H](C)NC(=O)[C@@H]2C[C@@H](O)CN2C(=O)[C@@H](NC(=O)CCCCCCCNC(=O)Cn2cc(-c3ccc4cc(O)c(N5CC(=O)NS5(=O)=O)c(F)c4c3)cn2)C(C)(C)C)cc1,DC50,[5],0.758 µM
same,DC50,[6],0.077 µM
CC(C)(O)CCOc1ccc2cc(O)c(N3CC(=O)NS3(=O)=O)c(F)c2c1,IC50,[7],0.0006 µM
same,IC50,B16-F10 [8],5.8 µM
Cc1cnnc(NCc2cc(O)c(N3CC(=O)NS3(=O)=O)c(F)c2)c1,IC50,B16-F10 [9],0.41 µM
same,IC50,[10],0.004 µM
[2H]ON1C(=O)c2cccc3c([N+](=O)[O-])ccc(c23)C1=O,IC50,[3],198 µM
same,IC50,[11],113 µM
O=c1c2ccccc2nnn1O,IC50,[3],369 µM
same,IC50,[11],472 µM
CC1(C)C[C@@H](Nc2cccc(-c3sc(C(=O)O)c(OCC(=O)O)c3Cl)c2)CCN1S(=O)(=O)Cc1cccc(NC(=O)N2CCC(c3ccc4c5c(cccc35)C(=O)N4[C@H]3CCC(=O)NC3=O)CC2)c1,DC50,[12],0.044 µM
same,inhibition in vivo at 10 mg/kg,B16-F10 [13],98%
O=P(O)(O)C(F)(F)c1cc2sc(CO)cc2cc1Br,IC50,[14],1.5 µM
CCN(CN=O)c1ccc(O)c(O)c1,IC50,[3],6.5 µM
CCc1ccc(C(=O)NCCCC[C@H](NC(=O)[C@H](Cc2ccc(C(F)(F)P(=O)(O)O)cc2)NC(=O)[C@@H](CC(=O)COC2CC(C)CCC2C(C)C)Cc2ccccc2)C(N)=O)cc1 (some centres undefined),Ki,[15],0.034 µM
same,IC50,[16],0.0092 µM
same,Ki,[1],0.0043 µM
same,IC50,[17],0.0092 µM
same,Ki,[2],0.034 µM
Cc1cccc(NCc2cc(F)c(N3CC(=O)NS3(=O)=O)c3[nH]ncc23)n1,IC50,B16-F10 [9],> 15 µM
same,IC50,[10],0.199 µM
CCCC1CCN(C2CCN(Cc3cc(O)c(N4CC(=O)NS4(=O)=O)c(F)c3)C2)C1 (centres undefined),IC50,B16-F10 [18],19.3 µM
same,IC50,[19],0.065 µM
C=C(C)[C@@H]1CC[C@@H](C)[C@@H]2CCC(C)=C[C@@H]21,IC50,[20],7.7 µM
same,IC50,[11],27 µM
C=C(C)C#COc1cc(C(N)=O)cc2c(Br)c(C(F)(F)P(=O)(O)O)sc12,IC50,[21],0.0137 µM
same,IC50,[22],0.132 µM
CC(C)C[C@@H]1NC(=O)[C@H](Cc2ccc(OC(F)(C(=O)O)C(=O)O)cc2)NC(=O)[C@H](CCC(=O)O)NC(=O)[C@H](CC(=O)O)NC(=O)[C@H](C)NC(=O)[C@H](CC(=O)O)NC(=O)SC[C@H](C(N)=O)NC1=O,Ki,[2],0.17 µM
CC(C)CCNc1ccc2cc(O)c(N3CC(=O)NS3(=O)=O)c(F)c2c1,IC50,[7],0.001 µM
same,IC50,[23],< 0.001 µM
NC(=O)c1cc2cc(Br)c(C(F)(F)P(=O)(O)O)cc2s1,IC50,[14],0.28 µM
CC(C)CCN[C@H]1CCc2cc(O)c(N3CC(=O)NS3(=O)=O)c(F)c2C1,IC50,B16-F10 [9],1 µM
same,IC50,[24],0.01 µM
same,IC50,[25],0.01 µM
Cn1c(=O)n(C2CCC(=O)NC2=O)c2ccc(C3CCN(C(=O)Nc4cccc(CS(=O)(=O)N5CC[C@H](Nc6cccc(-c7sc(C(=O)O)c(OCC(=O)O)c7Cl)c6)CC5(C)C)c4)CC3)cc21 (some centres undefined),DC50,[12],0.044 µM
same,Kd,[26],0.052 µM
CC(C)CC1CCN(C2CCN(Cc3cc(O)c(N4CC(=O)NS4(=O)=O)c(F)c3)C2)C1 (centres undefined),IC50,B16-F10 [18],8.44 µM
same,IC50,[19],0.066 µM
O=C1CN(c2c(O)cc(CNc3ncc[nH]3)cc2F)S(=O)(=O)N1,IC50,B16-F10 [9],0.16 µM
same,IC50,[10],0.01 µM
Cn1ccnc1NCc1cc(O)c(N2CC(=O)NS2(=O)=O)c(F)c1,IC50,B16-F10 [9],0.18 µM
same,IC50,[10],0.006 µM
CC(C)CCOc1ccc2cc(O)c(N3CC(=O)NS3(=O)=O)c(F)c2c1,IC50,[7],0.00058 µM
same,IC50,[23],0.00063 µM
CC(C)CCN[C@@H]1CCc2cc(O)c(N3CC(=O)NS3(=O)=O)c(F)c2C1 [OSUNPROTAFIB],IC50,B16-F10 [9],0.064 µM
same,IC50,[24],0.0028 µM
same,EC50,cells,0.18 µM
COc1ccc2cc(O)c(N3CC(=O)NS3(=O)=O)c(F)c2c1 [TEGEPROTAFIB],IC50,[7],0.001 µM
same,IC50,[23],0.001 µM
